17 compounds from BindingDB's records for doi:10.1021/jm050513m (The University of Texas At Houston, 2005) can be followed below.

Square brackets hold non-standard residues; d marks the D form. Peptide text beside a SMILES is read from it. * marks the point of attachment. ξ: configuration not given here. pY = N[C@@H](Cc1ccc(OP(=O)(O)O)cc1)C(=O)O; Dip = N[C@H](C(=O)O)C(c1ccccc1)c1ccccc1; NH(1S-phenylethyl) = C[C@H](N*)c1ccccc1; Hydrocinnamoyl = O=C(CCc1ccccc1)*; NMeThr(3ξ) = CN[C@H](C(=O)O)C(C)O; Ile(3ξ) = CCC(C)[C@H](N)C(=O)O; NMeL = CN[C@@H](CC(C)C)C(=O)O; Thr(3ξ) = CC(O)[C@H](N)C(=O)O; Pip = O=C(O)[C@@H]1CCCCN1; Pyrrolidide = C1CCN(*)C1; Aze = O=C(O)[C@@H]1CCN1; Cbz = O=C(OCc1ccccc1)*; Inp = O=C(O)C1CCNCC1; Propionyl = CCC(=O)*; Bz = O=C(c1ccccc1)*; GABA = NCCCC(=O)O

Signal transducer and activator of transcription 3, sequence (P42227 whole entry): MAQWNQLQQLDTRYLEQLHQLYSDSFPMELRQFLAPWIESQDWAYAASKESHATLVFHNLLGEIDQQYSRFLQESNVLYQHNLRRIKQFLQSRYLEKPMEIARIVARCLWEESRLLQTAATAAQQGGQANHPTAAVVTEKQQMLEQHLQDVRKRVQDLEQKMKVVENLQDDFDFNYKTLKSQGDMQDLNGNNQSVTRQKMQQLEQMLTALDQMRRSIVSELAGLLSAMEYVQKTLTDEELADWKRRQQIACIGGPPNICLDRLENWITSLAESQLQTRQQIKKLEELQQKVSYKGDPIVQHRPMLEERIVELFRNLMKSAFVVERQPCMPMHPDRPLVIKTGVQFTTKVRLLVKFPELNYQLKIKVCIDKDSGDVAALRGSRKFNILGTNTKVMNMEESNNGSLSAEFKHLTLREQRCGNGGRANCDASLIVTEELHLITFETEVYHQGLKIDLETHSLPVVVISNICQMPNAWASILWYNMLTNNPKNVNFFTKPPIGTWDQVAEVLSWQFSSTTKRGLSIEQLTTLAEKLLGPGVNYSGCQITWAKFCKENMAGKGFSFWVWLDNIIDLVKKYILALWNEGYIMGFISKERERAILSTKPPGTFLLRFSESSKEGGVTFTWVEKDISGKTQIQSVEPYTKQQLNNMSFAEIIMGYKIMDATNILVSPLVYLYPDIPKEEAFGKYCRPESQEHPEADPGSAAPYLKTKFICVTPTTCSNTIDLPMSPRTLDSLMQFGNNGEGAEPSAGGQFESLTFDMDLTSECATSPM

The first assay concerns the target Signal transducer and activator of transcription 3 (Mus musculus, UniProt P42227). Briefly: Fluorescence Polarization Assay.
Conditions: not given
As to the method:
Fluorescence polarization (FP) binding assay is utilizing the intrinsic property of the fluorescent probe, which will have low polarization value when free in solution. On binding to a target, the polarization of the probe will increase. Reaction mixtures of full length STAT3 alpha and the probe were placed in wells of a 96-well microtiter plate. The test peptide solution was added to each well. Fluorescence polarization was then read in a Tecan Polarian plate reader. The IC50 values were obtained from nonlinear regression analysis in the one-site competition mode. Peptides were assayed three times using three separate Stat3-probe preparations. IC50 values are reported as the mean of three IC50 values +/- the standard deviation.
A general note: Fluorescence polarisation rises when a labelled molecule tumbles more slowly, as on binding a larger partner.
A word on the IC50: it is the point on the concentration scale where inhibition reaches its midpoint. A higher IC50 goes with lower potency. As for `CNC(=O)[C@H](CCC(N)=O)NC(=O)[C@@H]1CCCN1C(=O)[C@H](CC(C)C)NC(=O)[C@H](Cc1ccc(OP(=O)(O)O)cc1)NC(C)=O` [4-[(2S)-2-{[(2S)-1-[(2S)-2-{[(1S)-3-carbamoyl-1-(methylcarbamoyl)propyl]carbamoyl}pyrrolidin-1-yl]-4-methyl-1-oxopentan-2-yl]carbamoyl}-2-acetamidoethyl]phenoxyphosphonic acid] (Ac-[pY]LPQ-NHMe), the IC50 was 882 nM.

Compound `CC(=O)N[C@@H](Cc1ccc(OP(=O)(O)O)cc1)C(=O)N[C@@H](CC(C)C)C(=O)N1CCC[C@H]1C(=O)NCCCC(N)=O` [4-[(2S)-2-{[(2S)-1-[(2S)-2-[(3-carbamoylpropyl)carbamoyl]pyrrolidin-1-yl]-4-methyl-1-oxopentan-2-yl]carbamoyl}-2-acetamidoethyl]phenoxyphosphonic acid] (Ac-[pY]LP[GABA]-NH2) had an IC50 of 1780 nM.

`CC(=O)N[C@@H](Cc1ccc(OP(=O)(O)O)cc1)C(=O)N[C@@H](CC(C)C)C(=O)N1CCC[C@H]1C(=O)N[C@@H](CCC(N)=O)C(=O)N(C)[C@H](C(N)=O)C(C)O` (stereo partly drawn) [4-[(2S)-2-{[(2S)-1-[(2S)-2-{[(1S)-3-carbamoyl-1-{[(1S,2S)-1-carbamoyl-2-hydroxypropyl](methyl)carbamoyl}propyl]carbamoyl}pyrrolidin-1-yl]-4-methyl-1-oxopentan-2-yl]carbamoyl}-2-acetamidoethyl]phenoxyphosphonic acid] (Ac-[pY]LPQ[NMeThr(3ξ)]-NH2) yielded an IC50 of 1220 nM. This IC50 and that of the compound before are within 1.5-fold of each other.

The compound `CC(=O)N[C@@H](Cc1ccc(OP(=O)(O)O)cc1)C(=O)N[C@@H](CC(C)C)C(=O)N1CCC[C@H]1C(=O)N[C@@H](CCC(N)=O)C(=O)N1CCCC1` [4-[(2S)-2-{[(2S)-1-[(2S)-2-{[(2S)-4-carbamoyl-1-oxo-1-(pyrrolidin-1-yl)butan-2-yl]carbamoyl}pyrrolidin-1-yl]-4-methyl-1-oxopentan-2-yl]carbamoyl}-2-acetamidoethyl]phenoxyphosphonic acid] (Ac-[pY]LPQ-Pyrrolidide) yielded an IC50 of 2110 nM. Against the preceding compound, the IC50 is about 1.7-fold higher.

`CC(=O)N[C@@H](Cc1ccc(OP(=O)(O)O)cc1)C(=O)N[C@@H](CC(C)C)C(=O)N1CCC[C@H]1C(=O)N[C@@H](CCC(N)=O)C(=O)N[C@@H](C)c1ccccc1` [4-[(2S)-2-{[(2S)-1-[(2S)-2-{[(1S)-3-carbamoyl-1-{[(1S)-1-phenylethyl]carbamoyl}propyl]carbamoyl}pyrrolidin-1-yl]-4-methyl-1-oxopentan-2-yl]carbamoyl}-2-acetamidoethyl]phenoxyphosphonic acid] (Ac-[pY]LPQ-{NH(1S-phenylethyl)}) had an IC50 of 596 nM.

Staying with this assay, now noted: pH 7.5; 22 °C.
Take `CC(=O)N[C@@H](Cc1ccc(OP(=O)(O)O)cc1)C(=O)N[C@@H](CC(C)C)C(=O)N1CCC[C@@H]1C(=O)N[C@@H](CCC(N)=O)C(=O)N[C@H](C(N)=O)C(C)O` (stereo partly drawn) [4-[(2S)-2-{[(2S)-1-[(2R)-2-{[(1S)-3-carbamoyl-1-{[(1S,2S)-1-carbamoyl-2-hydroxypropyl]carbamoyl}propyl]carbamoyl}pyrrolidin-1-yl]-4-methyl-1-oxopentan-2-yl]carbamoyl}-2-acetamidoethyl]phenoxyphosphonic acid]: the IC50 is over 100000 nM.

`CC(C)C[C@H](NC(=O)[C@H](Cc1ccc(OP(=O)(O)O)cc1)NC(=O)OCc1ccccc1)C(=O)N1CCC[C@H]1C(=O)N[C@@H](CCC(N)=O)C(=O)N[C@H](C(N)=O)C(C)O` (stereo partly drawn) [4-[(2S)-2-{[(benzyloxy)carbonyl]amino}-2-{[(2S)-1-[(2S)-2-{[(1S)-3-carbamoyl-1-{[(1S,2S)-1-carbamoyl-2-hydroxypropyl]carbamoyl}propyl]carbamoyl}pyrrolidin-1-yl]-4-methyl-1-oxopentan-2-yl]carbamoyl}ethyl]phenoxyphosphonic acid] (Cbz-[pY]LPQ[Thr(3ξ)]-NH2) displayed a concentration for half-maximal inhibition (IC50) of 750 nM.

The compound `CC(=O)N[C@@H](Cc1ccc(OP(=O)(O)O)cc1)C(=O)N[C@@H](CC(C)C)C(=O)N1CCC(C(=O)N[C@@H](CCC(N)=O)C(=O)N[C@H](C(N)=O)C(C)O)CC1` (stereo partly drawn) [4-[(2S)-2-{[(2S)-1-(4-{[(1S)-3-carbamoyl-1-{[(1S,2S)-1-carbamoyl-2-hydroxypropyl]carbamoyl}propyl]carbamoyl}piperidin-1-yl)-4-methyl-1-oxopentan-2-yl]carbamoyl}-2-acetamidoethyl]phenoxyphosphonic acid] (Ac-[pY]L[Inp]Q[Thr(3ξ)]-NH2) yielded an IC50 of 34600 nM.

On to `CC(=O)N[C@@H](Cc1ccc(OP(=O)(O)O)cc1)C(=O)N[C@@H](CC(C)C)C(=O)N1CCC[C@H]1C(=O)N[C@@H](CCC(=O)N(C)C)C(=O)N[C@H](C(N)=O)C(C)O` (stereo partly drawn) [4-[(2S)-2-{[(2S)-1-[(2S)-2-{[(1S)-1-{[(1S,2S)-1-carbamoyl-2-hydroxypropyl]carbamoyl}-3-(dimethylcarbamoyl)propyl]carbamoyl}pyrrolidin-1-yl]-4-methyl-1-oxopentan-2-yl]carbamoyl}-2-acetamidoethyl]phenoxyphosphonic acid] (Ac-[pY]LPE(NMe2)[Thr(3ξ)]-NH2), for which the IC50 came out at 80000 nM.

`CC(=O)N[C@@H](Cc1ccc(OP(=O)(O)O)cc1)C(=O)N[C@@H](CC(C)C)C(=O)N1CC[C@H]1C(=O)N[C@@H](CCC(N)=O)C(=O)N[C@H](C(N)=O)C(C)O` (stereo partly drawn) [4-[(2S)-2-{[(2S)-1-[(2S)-2-{[(1S)-3-carbamoyl-1-{[(1S,2S)-1-carbamoyl-2-hydroxypropyl]carbamoyl}propyl]carbamoyl}azetidin-1-yl]-4-methyl-1-oxopentan-2-yl]carbamoyl}-2-acetamidoethyl]phenoxyphosphonic acid] (Ac-[pY]L[Aze]Q[Thr(3ξ)]-NH2): inhibition was half-maximal at 1660 nM (IC50).

`CC(=O)N[C@@H](Cc1ccc(OP(=O)(O)O)cc1)C(=O)N[C@@H](CC(C)C)C(=O)N1CCCC[C@H]1C(=O)N[C@@H](CCC(N)=O)C(=O)N[C@H](C(N)=O)C(C)O` (stereo partly drawn) [4-[(2S)-2-{[(2S)-1-[(2S)-2-{[(1S)-3-carbamoyl-1-{[(1S,2S)-1-carbamoyl-2-hydroxypropyl]carbamoyl}propyl]carbamoyl}piperidin-1-yl]-4-methyl-1-oxopentan-2-yl]carbamoyl}-2-acetamidoethyl]phenoxyphosphonic acid] (Ac-[pY]L[Pip]Q[Thr(3ξ)]-NH2) returned an IC50 of 1240 nM. This IC50 and that of the compound before are within 1.5-fold of each other.

As to `CC(=O)N[C@@H](Cc1ccc(OP(=O)(O)O)cc1)C(=O)N[C@H](C(=O)N1CCC[C@H]1C(=O)N[C@@H](CCC(N)=O)C(=O)N[C@H](C(N)=O)C(C)O)C(c1ccccc1)c1ccccc1` (stereo partly drawn) [4-[(2S)-2-{[(2S)-1-[(2S)-2-{[(1S)-3-carbamoyl-1-{[(1S,2S)-1-carbamoyl-2-hydroxypropyl]carbamoyl}propyl]carbamoyl}pyrrolidin-1-yl]-1-oxo-3,3-diphenylpropan-2-yl]carbamoyl}-2-acetamidoethyl]phenoxyphosphonic acid] (Ac-[pY][Dip]PQ[Thr(3ξ)]-NH2), the IC50 is over 100000 nM.

As to `CCC(=O)N[C@@H](Cc1ccc(OP(=O)(O)O)cc1)C(=O)N[C@@H](CC(C)C)C(=O)N1CCC[C@H]1C(=O)N[C@@H](CCC(N)=O)C(=O)N[C@H](C(N)=O)C(C)O` (stereo partly drawn) [4-[(2S)-2-{[(2S)-1-[(2S)-2-{[(1S)-3-carbamoyl-1-{[(1S,2S)-1-carbamoyl-2-hydroxypropyl]carbamoyl}propyl]carbamoyl}pyrrolidin-1-yl]-4-methyl-1-oxopentan-2-yl]carbamoyl}-2-propanamidoethyl]phenoxyphosphonic acid] (Propionyl-[pY]LPQ[Thr(3ξ)]-NH2), the IC50 was determined as 497 nM.

On to `CC(C)C[C@H](NC(=O)[C@H](Cc1ccc(OP(=O)(O)O)cc1)NC(=O)CCc1ccccc1)C(=O)N1CCC[C@H]1C(=O)N[C@@H](CCC(N)=O)C(=O)N[C@H](C(N)=O)C(C)O` (stereo partly drawn) [4-[(2S)-2-{[(2S)-1-[(2S)-2-{[(1S)-3-carbamoyl-1-{[(1S,2S)-1-carbamoyl-2-hydroxypropyl]carbamoyl}propyl]carbamoyl}pyrrolidin-1-yl]-4-methyl-1-oxopentan-2-yl]carbamoyl}-2-(3-phenylpropanamido)ethyl]phenoxyphosphonic acid] (Hydrocinnamoyl-[pY]LPQ[Thr(3ξ)]-NH2), for which half-maximal inhibition (IC50) required 276 nM.

Compound `CC(=O)N[C@@H](Cc1ccc(OP(=O)(O)O)cc1)C(=O)N(C)[C@@H](CC(C)C)C(=O)N1CCC[C@H]1C(=O)N[C@@H](CCC(N)=O)C(=O)N[C@H](C(N)=O)C(C)O` (stereo partly drawn) [4-[(2S)-2-{[(2S)-1-[(2S)-2-{[(1S)-3-carbamoyl-1-{[(1S,2S)-1-carbamoyl-2-hydroxypropyl]carbamoyl}propyl]carbamoyl}pyrrolidin-1-yl]-4-methyl-1-oxopentan-2-yl](methyl)carbamoyl}-2-acetamidoethyl]phenoxyphosphonic acid] (Ac-[pY][NMeL]PQ[Thr(3ξ)]-NH2) showed an IC50 of over 100000 nM.

In the case of `CCC(C)[C@H](NC(=O)[C@H](Cc1ccc(OP(=O)(O)O)cc1)NC(C)=O)C(=O)N1CCC[C@H]1C(=O)N[C@@H](CCC(N)=O)C(=O)N[C@H](C(N)=O)C(C)O` (stereo partly drawn) [4-[(2S)-2-{[(2S)-1-[(2S)-2-{[(1S)-3-carbamoyl-1-{[(1S)-1-carbamoyl-2-hydroxypropyl]carbamoyl}propyl]carbamoyl}pyrrolidin-1-yl]-3-methyl-1-oxopentan-2-yl]carbamoyl}-2-acetamidoethyl]phenoxyphosphonic acid] (Ac-[pY][Ile(3ξ)]PQ[Thr(3ξ)]-NH2), the IC50 was found to be 1070 nM.

Turning to `CC(C)C[C@H](NC(=O)[C@H](Cc1ccc(OP(=O)(O)O)cc1)NC(=O)c1ccccc1)C(=O)N1CCC[C@H]1C(=O)N[C@@H](CCC(N)=O)C(=O)N[C@H](C(N)=O)C(C)O` (stereo partly drawn) [4-[(2S)-2-{[(2S)-1-[(2S)-2-{[(1S)-3-carbamoyl-1-{[(1S,2S)-1-carbamoyl-2-hydroxypropyl]carbamoyl}propyl]carbamoyl}pyrrolidin-1-yl]-4-methyl-1-oxopentan-2-yl]carbamoyl}-2-(phenylformamido)ethyl]phenoxyphosphonic acid] (Bz-[pY]LPQ[Thr(3ξ)]-NH2), the midpoint of inhibition, the IC50, lay at 814 nM. The IC50 values of the last two compounds are within 1.5-fold of each other.
